Assay results from patent publication US9708251B2, “Unsaturated fatty alcohol alkoxylates from natural oil metathesis” (Stepan Company, priority 2012, dated 2017).

How the values were obtained:
[1] = Emulsion stability testing of nonionic emulsifiers, Hallcomid solvent series; format: physicochemical; design: key to 24 h separation, appearance / 1 h separation, appearance / 1 h separation, amount: C = creamy; CO = creamy oil; O = oil; GC = gritty cream; NS = no separation; OC = oily cream; key to Spon. (spontaneity): G = good; F = fair; P = poor
Procedure: (§1) Nonionic samples contain a low amount of water (<1%) and are prepared as emulsifiable concentrates with three pesticides using two different solvent systems. In the aromatic solvent series, the nonionic sample replaces Toximul® 8240 (castor oil ethoxylate, 36 POE, Stepan), and in the Hallcomid™ (N,N-dimethylcaprylamide/N,N-dimethylcapramide, Stepan) solvent series, the nonionic sample replaces Ninex® MT-630F.
(§2) Hallcomid Solvent Series.
(§3) Sample preparation: The surfactants are combined and stirred until homogeneous, with the nonionic sample melted if needed prior to combination. Controls 1-3 are made by using Ninex MT-630F in the amounts indicated instead of the nonionic sample.
(§4) Emulsion Stability Testing
(§5) A Mohr pipette is used to feed pesticide/surfactant concentrates to each cylinder.

[2] = Emulsion stability testing of nonionic emulsifiers, aromatic solvent series; format: physicochemical; design: key to 24 h separation, appearance / 1 h separation, appearance / 1 h separation, amount: C = creamy; CO = creamy oil; O = oil; GC = gritty cream; NS = no separation; OC = oily cream; key to Spon. (spontaneity): G = good; F = fair; P = poor
Procedure: as §1
Sample preparation: Ninate® 60E (calcium alkylbenzenesulfonate, Stepan) and the test sample are stirred until homogeneous. […] Controls 1-3 are made by using Toximul 8240 in the amounts indicated instead of the nonionic sample.
Formulations: • 1. Bifenthrin, 240 g/L (2.99 g), Aromatic 100 (ExxonMobil, 8.05 g), Ninate 60E (0.38 g), and nonionic sample or Toximul 8240 (0.58 g). • 2. 2,4-D ester, 480 g/L (8.90 g), Exxsol® D-110 (ExxonMobil, 2.50 g), Ninate 60E (0.36 g), and nonionic sample or Toximul 8240 (0.24 g). • 3. Tebuconazole, 360 g/L (4.45 g), N-methyl-2-pyrrolidone (6.35 g), Ninate 60E (0.48 g), nonionic sample or Toximul 8240 (0.72 g).
as §4, §5

[3] = 0.4 wt. % active, 342 ppm hard water
Procedure: Surfactant solution (100 mL) is carefully transferred to a stainless-steel mixing cup, then mixed at high speed (27K rpm) using a Hamilton Beach mixer for 10 s. The contents are quickly poured into a 100-mL graduated cylinder to the 100-mL mark, and a stopwatch is immediately started. The amount of liquid settling in the cylinder is recorded every 15 s for 4 min. Less liquid drained indicates greater foam stability.

[4] = Emulsion stability testing of nonionic emulsifiers, Hallcomid solvent series; format: physicochemical; design: key: C = creamy; CO = creamy oil; O = oil; GC = gritty cream; NS = no separation; OC = oily cream
Procedure: as §1, §2, §3, §4, §5

[5] = Surfactant phase behavior study (cross-polarized microscopy); format: physicochemical; settings: room temperature, in deionized water
Procedure: Phase behavior is observed using an Olympus BH-2 cross-polarized microscope at 100-400× and room temperature (20° C. to 22° C.). The inventive monounsaturated alcohol ethoxylates are compared with their saturated analogs.
Samples are prepared by diluting the most concentrated product gradually with deionized water. When the surfactant concentration approaches a phase transition, the concentration is varied at 2-4% intervals to estimate the phase boundary. The actives level reported in Table 4 for each phase boundary is within ±5% of the true boundary.
Samples are loaded between a microscope slide and cover glass and are allowed to equilibrate before observation. Microscopic texture is analyzed and used to determine the phase. For some samples, an AR 2000 rheometer (TA Instruments) is used to measure viscosity at 25° C. to further verify phase behavior.

[6] = 2,4-D diester 480 g/L in Hallcomid M-8-10, 34 ppm water
[7] = 2,4-D diester 480 g/L in Hallcomid M-8-10, 1000 ppm water
[8] = Bifenthrin 240 g/L in Hallcomid M-8-10, 34 ppm water
[9] = Bifenthrin 240 g/L in Hallcomid M-8-10, 1000 ppm water
[10] = Tebuconazole 360 g/L in Hallcomid M-8-10, 34 ppm water
[11] = Tebuconazole 360 g/L in Hallcomid M-8-10, 1000 ppm water
[12] = 2,4-D ester 480 g/L in Exxsol D-110, 34 ppm water
[13] = 2,4-D ester 480 g/L in Exxsol D-110, 1000 ppm water
[14] = Bifenthrin 240 g/L in Aromatic 100, 34 ppm water
[15] = Bifenthrin 240 g/L in Aromatic 100, 1000 ppm water
[16] = Tebuconazole 360 g/L in N-methyl-2-pyrrolidone, 34 ppm water
[17] = Tebuconazole 360 g/L in N-methyl-2-pyrrolidone, 1000 ppm water

## C=CCCCCCCCCOCCOCCOCCOCCOCCOCCOCCO [A10-13]
[1]; [6]
  1 h separation, amount: 4.5 mL
  1 h separation, appearance: C
  24 h separation, amount: 8.2 mL
  24 h separation, appearance: C
  Spon. (spontaneity): P
[1]; [7]
  1 h separation, amount: 5 mL
  1 h separation, appearance: C
  24 h separation, amount: 7.8 mL
  24 h separation, appearance: C
  Spon. (spontaneity): F
[1]; [8]
  1 h separation, amount: NS
  Spon. (spontaneity): G
[1]; [9]
  1 h separation, amount: 6.4 mL
  1 h separation, appearance: CO
  24 h separation, amount: 6 mL
  24 h separation, appearance: O
  Spon. (spontaneity): F
[1]; [10]
  1 h separation, amount: 2.1 mL
  1 h separation, appearance: C
  24 h separation, amount: 4.9 mL
  24 h separation, appearance: C
  Spon. (spontaneity): F
[1]; [11]
  1 h separation, amount: 3 mL
  1 h separation, appearance: C
  24 h separation, amount: 5.5 mL
  24 h separation, appearance: C
  Spon. (spontaneity): F
[2]; [12]
  1 h separation, amount: 2.8 mL
  1 h separation, appearance: C
  24 h separation, amount: 4.6 mL
  24 h separation, appearance: C
  Spon. (spontaneity): G
[2]; [13]
  1 h separation, amount: 3.9 mL
  1 h separation, appearance: CO
  24 h separation, amount: 1 O, 4 CO
  Spon. (spontaneity): F
[2]; [14]
  1 h separation, amount: 3 mL
  1 h separation, appearance: C
  24 h separation, amount: 5.8 mL
  24 h separation, appearance: C
  Spon. (spontaneity): F
[2]; [15]
  1 h separation, amount: NS
  24 h separation, amount: 2.6 mL
  24 h separation, appearance: O
  Spon. (spontaneity): G
[2]; [16]
  1 h separation, amount: 1.5 CO, 0.5 C
  24 h separation, amount: 2.8 mL
  24 h separation, appearance: CO
  Spon. (spontaneity): P
[2]; [17]
  1 h separation, amount: 2.1 mL
  1 h separation, appearance: CO
  24 h separation, amount: 3.5 mL
  24 h separation, appearance: CO
  Spon. (spontaneity): P
[3]
  Liquid volume at drain time 0.5 min: 0.50 mL
  Liquid volume at drain time 1.0 min: 2.25 mL
  Liquid volume at drain time 1.5 min: 4.00 mL
  Liquid volume at drain time 2.0 min: 6.00 mL
  Liquid volume at drain time 2.5 min: 7.50 mL
  Liquid volume at drain time 3.0 min: 9.50 mL
  Liquid volume at drain time 3.5 min: 11.50 mL
  Liquid volume at drain time 4.0 min: 13.25 mL
[4]; [8]
  24 h separation, amount: NS
[5]
  Isotropic Clear phase region: 0-100 % Actives Level

## C=CCCCCCCCCOCCOCCOCCOCCOCCOCCOCCOCCOCCOCCOCCOCCOCCOCCOCCO [A10-16]
[1]; [6]
  1 h separation, amount: 4.4 mL
  1 h separation, appearance: C
  24 h separation, amount: 8.5 mL
  24 h separation, appearance: C
  Spon. (spontaneity): P
[1]; [7]
  1 h separation, amount: 4.8 mL
  1 h separation, appearance: C
  24 h separation, amount: 7.6 mL
  24 h separation, appearance: C
  Spon. (spontaneity): P
[1]; [8]
  1 h separation, amount: NS
  Spon. (spontaneity): G
[1]; [9]
  1 h separation, amount: 5.5 mL
  1 h separation, appearance: CO
  24 h separation, amount: 5.4 mL
  24 h separation, appearance: O
  Spon. (spontaneity): F
[1]; [10]
  1 h separation, amount: 1 mL
  1 h separation, appearance: C
  Spon. (spontaneity): F
[1]; [11]
  1 h separation, amount: 2 mL
  1 h separation, appearance: C
  24 h separation, amount: 4.7 mL
  24 h separation, appearance: C
  Spon. (spontaneity): F
[2]; [12]
  1 h separation, amount: 2.6 mL
  1 h separation, appearance: C
  24 h separation, amount: 5 mL
  24 h separation, appearance: C
  Spon. (spontaneity): P
[2]; [13]
  1 h separation, amount: 2.8 mL
  1 h separation, appearance: C
  24 h separation, amount: 3.9 mL
  24 h separation, appearance: C
  Spon. (spontaneity): P
[2]; [14]
  1 h separation, amount: 7 mL
  1 h separation, appearance: C
  24 h separation, amount: 7 mL
  24 h separation, appearance: C
  Spon. (spontaneity): P
[2]; [15]
  1 h separation, amount: 6 mL
  1 h separation, appearance: C
  24 h separation, amount: 4.8 mL
  24 h separation, appearance: CO
  Spon. (spontaneity): P
[2]; [16]
  1 h separation, amount: 1 mL
  1 h separation, appearance: C
  24 h separation, amount: 3.5 mL
  24 h separation, appearance: CO
  Spon. (spontaneity): P
[2]; [17]
  1 h separation, amount: 1.2 mL
  1 h separation, appearance: C
  24 h separation, amount: 2 mL
  24 h separation, appearance: CO
  Spon. (spontaneity): P
[4]; [8]
  24 h separation, amount: NS
[4]; [10]
  24 h separation, amount: NS
[5]
  Paste phase region: 93-100 % Actives Level
